# Assay results as given in PubChem BioAssay AID330 (DTP/NCI, 2004).
# Where “and” joins values, the source holds several entries; their conditions need not be identical. Equal entries are not always repeated. Toxic doses and inconclusive results are not listed.
# Test system: P388 leukemia ip, CD2F1 mice, survival T/C
# Experiment: NCI In Vivo Anticancer Drug Screen. Data for tumor model P388 Leukemia (intraperitoneal) in CD2F1 (CDF1) mice
# Conditions: endpoint: median survival time, higher = longer survival
# Procedure, shortened: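 Mice carrying the transplanted tumor received test compound or vehicle. Survival was recorded in each group, and the value is the treated-group measurement divided by that of the vehicle-treated control group.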
# [1] = dose: 100.0 mg/kg/injection, schedule: Q01DX009 (ip), vehicle: saline with Tween-80
# [2] = dose: 100.0 mg/kg/injection, schedule: Q01DX001 (ip), vehicle: Klucel (hydroxypropylcellulose) (HPC)
# [3] = dose: 400.0 mg/kg/injection, schedule: Q01DX001 (ip), vehicle: Klucel (hydroxypropylcellulose) (HPC)
# [4] = dose: 200.0 mg/kg/injection, schedule: Q01DX009 (ip), vehicle: saline with Tween-80
smiles,measurement,setting,value
C1#CCCCCCC#CCCCC1,T/C,"dose: 20.0 mg/kg/injection, schedule: Q01DX009 (ip), vehicle: saline with Tween-80",109 % of control
same,T/C,"dose: 30.0 mg/kg/injection, schedule: Q01DX009 (ip), vehicle: saline with Tween-80",104 % of control
same,T/C,"dose: 44.0 mg/kg/injection, schedule: Q01DX009 (ip), vehicle: saline with Tween-80",100 % of control
same,T/C,"dose: 66.0 mg/kg/injection, schedule: Q01DX009 (ip), vehicle: saline with Tween-80",104 % of control
same,T/C,[1],104 % of control
same,T/C,"dose: 150.0 mg/kg/injection, schedule: Q01DX009 (ip), vehicle: saline with Tween-80",109 % of control
CCCCCCCCCCCC(=O)NCC(=O)NC1C(CO)OC(Nc2ncnc3nc[nH]c23)C(O)C1O (stereo not drawn),T/C,"dose: 0.06 mg/kg/injection, schedule: Q01DX009 (ip), vehicle: water",93 % of control
same,T/C,"dose: 0.12 mg/kg/injection, schedule: Q01DX009 (ip), vehicle: water",101 % of control
same,T/C,"dose: 0.13 mg/kg/injection, schedule: Q01DX009 (ip), vehicle: other",103 % of control
same,T/C,"dose: 0.25 mg/kg/injection, schedule: Q01DX009 (ip), vehicle: other",113 % of control
same,T/C,"dose: 0.25 mg/kg/injection, schedule: Q01DX009 (ip), vehicle: water",99 % of control
same,T/C,"dose: 0.5 mg/kg/injection, schedule: Q01DX009 (ip), vehicle: other",121 % of control
same,T/C,"dose: 0.5 mg/kg/injection, schedule: Q01DX009 (ip), vehicle: water",99 % of control
same,T/C,"dose: 1.0 mg/kg/injection, schedule: Q01DX009 (ip), vehicle: water",105 % of control
same,T/C,"dose: 2.0 mg/kg/injection, schedule: Q01DX009 (ip), vehicle: other",100 % of control and 86 % of control
same,T/C,"dose: 2.0 mg/kg/injection, schedule: Q01DX009 (ip), vehicle: water",124 % of control
NC(=O)c1c(N)nn2c(-c3ccccc3)cc(-c3ccccc3)cc12,T/C,[2],86 % of control
same,T/C,[3],94 % of control
Cc1nn(C(N)=S)c(C)c1N=Nc1ccc([N+](=O)[O-])cc1,T/C,[2],104 % of control
same,T/C,"dose: 200.0 mg/kg/injection, schedule: Q01DX001 (ip), vehicle: Klucel (hydroxypropylcellulose) (HPC)",108 % of control
same,T/C,[3],113 % of control
Cc1cc(C2=NCC(C)S2)ccc1OCCSCCOc1ccc(C2=NCC(C)S2)cc1C (stereo not drawn),T/C,"dose: 12.5 mg/kg/injection, schedule: Q01DX009 (ip), vehicle: saline with Tween-80",92 % of control
same,T/C,"dose: 25.0 mg/kg/injection, schedule: Q01DX009 (ip), vehicle: saline with Tween-80",92 % of control
COc1ccc(OC)c2c1CCC(O)(C#N)C2 (stereo not drawn),T/C,"dose: 3.13 mg/kg/injection, schedule: Q01DX009 (ip), vehicle: other",100 % of control and 101 % of control
same,T/C,"dose: 6.25 mg/kg/injection, schedule: Q01DX009 (ip), vehicle: other",100 % of control and 102 % of control
same,T/C,"dose: 12.5 mg/kg/injection, schedule: Q01DX009 (ip), vehicle: other",101 % of control
O=P(N1CCCCCC1)(N1CC1)N1CC1,T/C,"dose: 0.47 mg/kg/injection, schedule: Q01DX009 (ip), vehicle: saline",102 % of control
same,T/C,"dose: 0.94 mg/kg/injection, schedule: Q01DX009 (ip), vehicle: saline",108 % of control
same,T/C,"dose: 0.94 mg/kg/injection, schedule: Q04DX003 (ip), vehicle: saline",117 % of control
same,T/C,"dose: 1.87 mg/kg/injection, schedule: Q01DX009 (ip), vehicle: saline",118 % of control
same,T/C,"dose: 1.88 mg/kg/injection, schedule: Q01DX009 (ip), vehicle: saline",118 % of control
same,T/C,"dose: 3.75 mg/kg/injection, schedule: Q04DX003 (ip), vehicle: saline",161 % of control
same,T/C,"dose: 7.5 mg/kg/injection, schedule: Q04DX003 (ip), vehicle: saline",227 % of control
same,T/C,"dose: 15.0 mg/kg/injection, schedule: Q04DX003 (ip), vehicle: saline",165 % of control
same,T/C,"dose: 22.0 mg/kg/injection, schedule: Q04DX003 (ip), vehicle: saline",190 % of control
same,T/C,"dose: 30.0 mg/kg/injection, schedule: Q04DX003 (ip), vehicle: saline",200 % of control
same,T/C,"dose: 33.0 mg/kg/injection, schedule: Q04DX003 (ip), vehicle: saline",259 % of control
O=CC1C2C=CCC12 (stereo not drawn),T/C,[1],113 % of control
same,T/C,[4],118 % of control
same,T/C,"dose: 400.0 mg/kg/injection, schedule: Q01DX009 (ip), vehicle: saline with Tween-80",113 % of control
CONCc1ccc(C(=O)NC(C)C)cc1,T/C,"dose: 25.0 mg/kg/injection, schedule: Q01DX009 (ip), vehicle: distilled water + Tween-80",105 % of control
same,T/C,"dose: 50.0 mg/kg/injection, schedule: Q01DX009 (ip), vehicle: distilled water + Tween-80",106 % of control
same,T/C,"dose: 100.0 mg/kg/injection, schedule: Q01DX009 (ip), vehicle: distilled water + Tween-80",90 % of control
same,T/C,"dose: 200.0 mg/kg/injection, schedule: Q01DX009 (ip), vehicle: distilled water + Tween-80",90 % of control
C=C1C(=O)OC2C/C(C)=C/CC/C(C)=C/CCC3(C)OC3CC12 (stereo not drawn),T/C,"dose: 4.0 mg/kg/injection, schedule: Q01DX009 (ip), vehicle: Klucel (hydroxypropylcellulose) (HPC)",104 % of control
same,T/C,"dose: 8.0 mg/kg/injection, schedule: Q01DX009 (ip), vehicle: Klucel (hydroxypropylcellulose) (HPC)",104 % of control
same,T/C,"dose: 16.0 mg/kg/injection, schedule: Q01DX009 (ip), vehicle: Klucel (hydroxypropylcellulose) (HPC)",108 % of control
same,T/C,"dose: 32.0 mg/kg/injection, schedule: Q01DX009 (ip), vehicle: Klucel (hydroxypropylcellulose) (HPC)",105 % of control
CC1(C)CC(O)C2(CO)C(C1)C1=CCC3C4(C)CCC(O)C(C)(C)C4CCC3(C)C1(C)C(O)C2O (stereo not drawn),T/C,"dose: 5.25 mg/kg/injection, schedule: Q01DX005 (ip), vehicle: Klucel (hydroxypropylcellulose) (HPC)",100 % of control
same,T/C,"dose: 10.5 mg/kg/injection, schedule: Q01DX005 (ip), vehicle: Klucel (hydroxypropylcellulose) (HPC)",103 % of control
same,T/C,"dose: 21.0 mg/kg/injection, schedule: Q01DX005 (ip), vehicle: Klucel (hydroxypropylcellulose) (HPC)",94 % of control
same,T/C,"dose: 42.0 mg/kg/injection, schedule: Q01DX005 (ip), vehicle: Klucel (hydroxypropylcellulose) (HPC)",99 % of control
C=CCC(NC(=O)CCl)C(=O)O (stereo not drawn),T/C,"dose: 50.0 mg/kg/injection, schedule: Q01DX009 (ip), vehicle: saline",92 % of control
same,T/C,"dose: 100.0 mg/kg/injection, schedule: Q01DX009 (ip), vehicle: saline",90 % of control
O=C1C(C2=CCCCC2)CCCC1C1=CCCCC1 (stereo not drawn),T/C,"dose: 50.0 mg/kg/injection, schedule: Q01DX009 (ip), vehicle: saline with Tween-80",89 % of control
same,T/C,[1],91 % of control
same,T/C,[4],104 % of control
CCCCN1C(=O)C(=O)N(CCc2ccc(OC)c(OC)c2)C1=O,T/C,"dose: 50.0 mg/kg/injection, schedule: Q01DX009 (ip), vehicle: Klucel (hydroxypropylcellulose) (HPC)",91 % of control
same,T/C,"dose: 100.0 mg/kg/injection, schedule: Q01DX009 (ip), vehicle: Klucel (hydroxypropylcellulose) (HPC)",86 % of control
same,T/C,"dose: 200.0 mg/kg/injection, schedule: Q01DX009 (ip), vehicle: Klucel (hydroxypropylcellulose) (HPC)",91 % of control
O=C(O)C(Cc1ccccc1)N=Cc1ccc(O)cc1 (stereo not drawn),T/C,"dose: 100.0 mg/kg/injection, schedule: Q04DX003 (ip), vehicle: saline with Tween-80",102 % of control
same,T/C,"dose: 200.0 mg/kg/injection, schedule: Q04DX003 (ip), vehicle: saline with Tween-80",106 % of control
same,T/C,"dose: 400.0 mg/kg/injection, schedule: Q04DX003 (ip), vehicle: saline with Tween-80",97 % of control
O=C(Nc1ccccc1)Sc1ccc(Cl)cc1,T/C,"dose: 25.0 mg/kg/injection, schedule: Q01DX005 (ip), vehicle: saline with Tween-80",115 % of control
same,T/C,"dose: 50.0 mg/kg/injection, schedule: Q01DX005 (ip), vehicle: saline with Tween-80",121 % of control
same,T/C,"dose: 100.0 mg/kg/injection, schedule: Q01DX005 (ip), vehicle: saline with Tween-80",115 % of control and 123 % of control
same,T/C,"dose: 200.0 mg/kg/injection, schedule: Q01DX005 (ip), vehicle: saline with Tween-80",124 % of control
Nc1cc(Cl)c(O)c(Cl)c1,T/C,"dose: 25.0 mg/kg/injection, schedule: Q01DX001 (ip), vehicle: saline with Tween-80",100 % of control
same,T/C,"dose: 50.0 mg/kg/injection, schedule: Q01DX001 (ip), vehicle: saline with Tween-80",95 % of control
same,T/C,"dose: 100.0 mg/kg/injection, schedule: Q01DX001 (ip), vehicle: saline with Tween-80",90 % of control
COc1cccc(C2c3cc4c(cc3OC(O)C2C)OCO4)c1O (stereo not drawn),T/C,"dose: 60.0 mg/kg/injection, schedule: Q01DX005 (ip), vehicle: Klucel (hydroxypropylcellulose) (HPC)",99 % of control
same,T/C,"dose: 120.0 mg/kg/injection, schedule: Q01DX005 (ip), vehicle: Klucel (hydroxypropylcellulose) (HPC)",99 % of control
same,T/C,"dose: 240.0 mg/kg/injection, schedule: Q01DX005 (ip), vehicle: Klucel (hydroxypropylcellulose) (HPC)",100 % of control
